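Each compound was tested at five concentrations against cells in 96-well plates for 48 hours. TGI: total growth inhibition.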
Key:
Assay in all cases: DTP human tumour cell line panel, 48 h
786-0 renal = tested on: 786-0 renal
A549 NSCLC = tested on: A549 NSCLC
ACHN renal = tested on: ACHN renal
CCRF-CEM leukemia = tested on: CCRF-CEM leukemia
COLO 205 colon = tested on: COLO 205 colon
DLD-1 colon = tested on: DLD-1 colon
DMS 114 small cell lung = tested on: DMS 114 small cell lung
DMS 273 small cell lung = tested on: DMS 273 small cell lung
EKVX NSCLC = tested on: EKVX NSCLC
HCC-2998 colon = tested on: HCC-2998 colon
HCT-116 colon = tested on: HCT-116 colon
HL-60(TB) leukemia = tested on: HL-60(TB) leukemia
HOP-18 NSCLC = tested on: HOP-18 NSCLC
HOP-62 NSCLC = tested on: HOP-62 NSCLC
HOP-92 NSCLC = tested on: HOP-92 NSCLC
HT29 colon = tested on: HT29 colon
IGROV1 ovarian = tested on: IGROV1 ovarian
K-562 leukemia = tested on: K-562 leukemia
KM12 colon = tested on: KM12 colon
KM20L2 colon = tested on: KM20L2 colon
LOX IMVI melanoma = tested on: LOX IMVI melanoma
LXFL 529 NSCLC = tested on: LXFL 529 NSCLC
M14 melanoma = tested on: M14 melanoma
M19-MEL melanoma = tested on: M19-MEL melanoma
MALME-3M melanoma = tested on: MALME-3M melanoma
MOLT-4 leukemia = tested on: MOLT-4 leukemia
NCI-H226 lung = tested on: NCI-H226 lung
NCI-H23 lung = tested on: NCI-H23 lung
NCI-H460 lung = tested on: NCI-H460 lung
NCI-H522 lung = tested on: NCI-H522 lung
OVCAR-3 ovarian = tested on: OVCAR-3 ovarian
OVCAR-8 ovarian = tested on: OVCAR-8 ovarian
RPMI-8226 leukemia = tested on: RPMI-8226 leukemia
RXF 393 renal = tested on: RXF 393 renal
SF-268 CNS = tested on: SF-268 CNS
SF-295 CNS = tested on: SF-295 CNS
SF-539 CNS = tested on: SF-539 CNS
SK-MEL-2 melanoma = tested on: SK-MEL-2 melanoma
SK-MEL-5 melanoma = tested on: SK-MEL-5 melanoma
SK-OV-3 ovarian = tested on: SK-OV-3 ovarian
SN12C renal = tested on: SN12C renal
SNB-19 CNS = tested on: SNB-19 CNS
SNB-75 CNS = tested on: SNB-75 CNS
SNB-78 CNS = tested on: SNB-78 CNS
SW-620 colon = tested on: SW-620 colon
TK-10 renal = tested on: TK-10 renal
U251 CNS = tested on: U251 CNS
UACC-257 melanoma = tested on: UACC-257 melanoma
UACC-62 melanoma = tested on: UACC-62 melanoma
UO-31 renal = tested on: UO-31 renal
XF 498 CNS = tested on: XF 498 CNS

## C#C[C@]1(O)CCC2C3CCc4cc(Oc5nc(F)nc(-n6c(C)nc7cc8ccccc8cc76)n5)ccc4C3CCC21C (stereo partly specified)
786-0 renal
  TGI: > 100 µM
A549 NSCLC
  TGI: > 100 µM
ACHN renal
  TGI: > 100 µM
CCRF-CEM leukemia
  TGI: > 100 µM
COLO 205 colon
  TGI: 45.8 µM
DLD-1 colon
  TGI: > 100 µM
DMS 114 small cell lung
  TGI: 53.8 µM
DMS 273 small cell lung
  TGI: > 100 µM
EKVX NSCLC
  TGI: > 100 µM
HCC-2998 colon
  TGI: > 100 µM
HCT-116 colon
  TGI: > 100 µM
HL-60(TB) leukemia
  TGI: > 100 µM
HOP-18 NSCLC
  TGI: > 100 µM
HOP-62 NSCLC
  TGI: > 100 µM
HOP-92 NSCLC
  TGI: > 100 µM
HT29 colon
  TGI: > 100 µM
IGROV1 ovarian
  TGI: > 100 µM
K-562 leukemia
  TGI: > 100 µM
KM12 colon
  TGI: > 100 µM
KM20L2 colon
  TGI: > 100 µM
LOX IMVI melanoma
  TGI: > 100 µM
LXFL 529 NSCLC
  TGI: > 100 µM
M14 melanoma
  TGI: > 100 µM
M19-MEL melanoma
  TGI: > 100 µM
MALME-3M melanoma
  TGI: > 100 µM
MOLT-4 leukemia
  TGI: > 100 µM
NCI-H226 lung
  TGI: > 100 µM
NCI-H23 lung
  TGI: > 100 µM
NCI-H460 lung
  TGI: 65.9 µM
NCI-H522 lung
  TGI: > 100 µM
OVCAR-3 ovarian
  TGI: > 100 µM
OVCAR-8 ovarian
  TGI: > 100 µM
RPMI-8226 leukemia
  TGI: > 100 µM
RXF 393 renal
  TGI: > 100 µM
SF-268 CNS
  TGI: > 100 µM
SF-295 CNS
  TGI: > 100 µM
SF-539 CNS
  TGI: > 100 µM
SK-MEL-2 melanoma
  TGI: > 100 µM
SK-MEL-5 melanoma
  TGI: > 100 µM
SK-OV-3 ovarian
  TGI: > 100 µM
SN12C renal
  TGI: > 100 µM
SNB-19 CNS
  TGI: > 100 µM
SNB-75 CNS
  TGI: > 100 µM
SNB-78 CNS
  TGI: > 100 µM
SW-620 colon
  TGI: > 100 µM
TK-10 renal
  TGI: > 100 µM
U251 CNS
  TGI: > 100 µM
UACC-257 melanoma
  TGI: > 100 µM
UACC-62 melanoma
  TGI: > 100 µM
UO-31 renal
  TGI: > 100 µM
XF 498 CNS
  TGI: > 100 µM
